This note sets out measurements from patent US7244557B2, “Method of screening modulators of Nod1 signaling” (Regents of the University of Michigan, priority 2003, dated 2007).

In this experiment the target is T1, NOD1ΔLRR (Homo sapiens, UniProt Q9Y239).
T1 construct: pcDNA3-NOD1-ΔLRR(1–648)-FLAG; expressed in transfected cells; host or cells: HEK293T
T1 sequence (Q9Y239 1-648): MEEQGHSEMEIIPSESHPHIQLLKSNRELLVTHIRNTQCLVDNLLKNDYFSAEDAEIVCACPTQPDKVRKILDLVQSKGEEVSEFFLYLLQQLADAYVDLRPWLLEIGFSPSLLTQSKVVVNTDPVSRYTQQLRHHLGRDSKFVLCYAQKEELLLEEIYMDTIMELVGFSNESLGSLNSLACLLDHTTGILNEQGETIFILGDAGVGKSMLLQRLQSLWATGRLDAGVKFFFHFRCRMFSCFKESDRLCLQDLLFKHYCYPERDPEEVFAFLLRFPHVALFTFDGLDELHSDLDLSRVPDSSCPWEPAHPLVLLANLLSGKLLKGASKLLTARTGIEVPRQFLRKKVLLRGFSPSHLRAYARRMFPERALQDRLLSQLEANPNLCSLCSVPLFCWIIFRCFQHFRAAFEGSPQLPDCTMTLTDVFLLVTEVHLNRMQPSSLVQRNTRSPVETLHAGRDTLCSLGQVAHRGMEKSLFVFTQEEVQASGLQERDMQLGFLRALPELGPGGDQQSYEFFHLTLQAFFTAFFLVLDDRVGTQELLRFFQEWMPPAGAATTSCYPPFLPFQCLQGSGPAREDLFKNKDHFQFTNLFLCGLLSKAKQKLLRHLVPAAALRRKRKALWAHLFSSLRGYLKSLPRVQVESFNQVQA
Briefly: NF-κB activation assay, cells expressing mutant NOD1 lacking LRRs. The class given is cell-based. How it is done:
A) Structure of purified PGN fraction from B. subtilis (GM3P) and synthetic PGN-related compounds used in the study. B) Structure of MDP and four copies of GlcNAc-MurNAc with attached L-Ala-γ-D-Gln (4 mer) are indicated by closed and dotted boxes, respectively. C) The ability of cells were transfected with 0.3 ng pcDNA3-NOD1-Flag, 0.1 ng pcDNA3-Nod2 (NOD2) or vector control and reporter pBxIV-luc and pEF-BOS-β-gal plasmids to activate NF-κB. D) The ability of synthetic peptides, iE-DAP and iQ-DAP to stimulate NF-κB activation in the presence of control vector (−) and plasmids encoding NOD1 wild-type, mutant NOD1 lacking LRRs (NOD1ΔLRR) and NOD2. E) The ability of iE-DAP, iQ-DAP and sBLP (1 μg/ml) to activate NF-κB.
Reagents. LPS from S. typhimurium, intact and alkaline-detoxified LPS from E. coli O55:B5 as well as purified lipid A preparations of E. coli F583, MDP, DAP and dsRNA were obtained from Sigma-Aldrich (St. Louis, Mo.). PGN from S. aureus was from Fluka-Chemie (Buchs, Germany). Palmitoyl-Cys ((RS)-2,3-di(palmitoyloxy)-propyl)-Ala-Gly) (sBLP), was obtained from Bachem (Torrance, Calif.). […] The amino acid composition of E. coli O55:B5 LPS was determined using AccQ·Tag amino acid analysis system (Waters, Milford, Mass.) after hydrolysis at 110° C. for 24 hr. […]

With “γ-D-glutamy-meso-diaminopimelic acid [iE-DAP]”, the “NF-κB activation by mutant NOD1 lacking the LRRs” value is reported as “did not respond”.
